Measurements published in US20240043415A1, “KCNT1 INHIBITORS AND METHODS OF USE” (Praxis Precision Medicines, Inc., priority 2020, published 2024).

Molecular target: T1, KCNT1 (KNa1.1, Slack) (Homo sapiens, UniProt Q5JUK3)
T1 construct: expressed in transfected cells; host or cells: HEK-TREX (tetracycline-inducible)
T1 sequence (Q5JUK3 1-1230): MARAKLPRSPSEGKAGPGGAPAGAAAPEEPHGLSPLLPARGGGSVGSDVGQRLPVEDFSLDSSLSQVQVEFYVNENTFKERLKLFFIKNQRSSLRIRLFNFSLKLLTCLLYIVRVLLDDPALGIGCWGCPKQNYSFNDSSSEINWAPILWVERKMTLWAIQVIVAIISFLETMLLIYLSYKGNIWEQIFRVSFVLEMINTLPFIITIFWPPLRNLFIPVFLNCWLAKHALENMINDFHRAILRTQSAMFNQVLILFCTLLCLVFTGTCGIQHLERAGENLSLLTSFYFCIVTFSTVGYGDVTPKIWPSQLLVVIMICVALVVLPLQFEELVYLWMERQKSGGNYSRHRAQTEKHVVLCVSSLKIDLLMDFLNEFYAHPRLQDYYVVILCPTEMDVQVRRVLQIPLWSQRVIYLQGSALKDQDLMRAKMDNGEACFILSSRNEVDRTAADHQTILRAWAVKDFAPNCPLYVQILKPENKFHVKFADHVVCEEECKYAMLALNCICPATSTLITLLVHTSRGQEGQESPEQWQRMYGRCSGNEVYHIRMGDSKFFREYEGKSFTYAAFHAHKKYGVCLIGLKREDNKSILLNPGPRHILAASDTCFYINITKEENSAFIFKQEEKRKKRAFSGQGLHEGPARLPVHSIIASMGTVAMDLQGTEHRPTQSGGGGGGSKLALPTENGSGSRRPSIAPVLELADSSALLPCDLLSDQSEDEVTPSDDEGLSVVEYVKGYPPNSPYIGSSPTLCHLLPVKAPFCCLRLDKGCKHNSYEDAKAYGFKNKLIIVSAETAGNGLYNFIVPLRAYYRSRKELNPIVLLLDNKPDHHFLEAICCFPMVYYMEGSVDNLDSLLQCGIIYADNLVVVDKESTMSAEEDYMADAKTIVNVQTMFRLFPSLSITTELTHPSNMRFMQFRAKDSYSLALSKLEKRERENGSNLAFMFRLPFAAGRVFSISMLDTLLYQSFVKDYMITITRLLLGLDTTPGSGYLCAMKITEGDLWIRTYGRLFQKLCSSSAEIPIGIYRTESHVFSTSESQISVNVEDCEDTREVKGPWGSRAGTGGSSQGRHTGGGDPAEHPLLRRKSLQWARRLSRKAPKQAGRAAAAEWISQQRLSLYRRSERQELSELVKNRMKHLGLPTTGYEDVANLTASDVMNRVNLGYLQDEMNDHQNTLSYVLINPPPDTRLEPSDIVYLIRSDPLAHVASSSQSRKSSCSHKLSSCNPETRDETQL
Assay: KCNT1 patch clamp assay (SyncroPatch 384PE, HEK-TREX cell line)
Assay type: cell-based
Conditions: tetracycline inducible HEK-TREX cell line, perforated patch, step to 0 mV, room temperature; read-out: KCNT1-WT IC50
Protocol: Currents were recorded using the SyncroPatch 384PE automated, patch clamp system. Pulse generation and data collection were performed with PatchController384 V1.3.0 and DataController384 V1.2.1 (Nanion Technologies). The access resistance and apparent membrane capacitance were estimated using built-in protocols. Current were recorded in perforated patch mode (10 μM escin) from a population of cells. The cells were lifted, triturated, and resuspended at 800,000 cells/ml. The cells were allowed to recover in the cell hotel prior to experimentation. Currents were recorded at room temperature. […] The extracellular solution was used as the wash, reference and compound delivery solution. […] Escin is made at a 5 mM stock in water, aliquoted, and stored at −20° C. The compound plate was created at 2× concentrated in the extracellular solution. The compound was diluted to 1:2 when added to the recording well. The amount of DMSO in the extracellular solution was held constant at the level used for the highest tested concentration. A holding potential of −80 mV with a 100 ms step to 0 mV was used. […] The average mean current from 3 sweeps was calculated and the % inhibition of each compound was calculated. The % Inhibition as a function of the compound concentration was fit with a Hill equation to derive IC50, slope, min and max parameters.

## C[C@H](NC(=O)c1cc(C(F)(F)F)nn1C)c1noc(-c2ccnc(C3CC3)c2)n1 [Compound 2a, (S)-N-(1-(5-(2-cyclopropylpyridin-4-yl)-1,2,4-oxadiazol-3-yl)ethyl)-1-methyl-3-(trifluoromethyl)-1H-pyrazole-5-carboxamide]
  IC50: ≤ 1000 nM
